The values below come from US9295732B2, “Conjugated TLR7 and/or TLR8 and TLR2 polycationic agonists” (CAYLA, priority 2013, dated 2016).

The subject of assay [1] is ISG54 promoter activity in B16-ISG54 reporter cells. Nature of the assay: IFN response assay, B16-ISG54 luciferase reporter cells. The assay is classed as cell-based, mouse. As to conditions: in complexes with pDNA 3:24 (w:w), overnight, FIG. 6B. How it is done: The effect of the pDNA:TLR7-TLR2 polyamine molecules complexes on inducing an interferon response was examined. pDNA:TLR7-TLR2 polyamine molecules mixtures (pDNA:TLR7-TLR2 polyamine molecules ratio 3:24, w:w) in serum-free medium or 5% glucose were prepared as described above and added to IFN reporter cells. Luciferase reporter cell lines were used to assay interferon response. A plasmid containing an interferon-inducible luciferase reporter gene was introduced into mouse RAW 264.7 macrophages and mouse B16 melanoma cells, giving rise to the RAW-ISG54 and B16-ISG54 reporter cell lines respectively. Expression of the luciferase reporter gene by the plasmid is under the control of an interferon-inducible promoter (I-ISG54) comprising five interferon-stimulated response elements (ISRE) and the minimal promoter of the human ISG-54K (Interferon Stimulation of a Gene encoding a 54 kDa protein) gene. The ISG-54K gene is induced by interferon regulatory factor 3 (IRF3), which has a key involvement in […] responses (Grandvaux et al. 2002) and the minimal promoter of the human ISG-54K gene contains two ISRE sites and fully inducible by type I interferons (IFN-α and IFN-β) and interferon regulatory factors (IRFs) (Wathelet et al. 1988; Grandvaux et al. 2002).
The RAW-ISG54 and B16-ISG54 reporter cell lines were seeded onto 96 well microtiter plates at 100,000 cells per well and 75,000 cells per well respectively. Cells were cultured in DMEM supplemented with 10% (v/v) heat inactivated fetal bovine serum (30 min at 56° C.), 4.5 g/I glucose, 2 mM L-glutamine, 50 U/ml penicillin, 50 μg/ml streptomycin, 100 μg/ml Normocin™ (InvivoGen) together with pDNA:TLR7-TLR2 polyamine complexes at 37° C. overnight. pDNA:TLR7-TLR2 polyamine molecules complexes were prepared as described above prior to adding to the IFN reporter cells. The induced luciferase expression was assessed in the reporter cell lines using a coelenterazine-base luminescence assay reagent, the Quanti-Luc™ (InvivoGen). Secreted luciferase activity was determined by bioluminescence quantification of the cell culture media using a microplate luminometer (FLUOstar OPTIMA from BMG Labtech).
A general note: In a reporter assay the amount or activity of a reporter protein is the signal.

For the next assay, the target named is T1, human TLR7 (Homo sapiens, UniProt Q9NYK1).
T1 construct: host or cells: HEK293 (HEK-Blue™ hTLR7)
T1 sequence (Q9NYK1 27-1049): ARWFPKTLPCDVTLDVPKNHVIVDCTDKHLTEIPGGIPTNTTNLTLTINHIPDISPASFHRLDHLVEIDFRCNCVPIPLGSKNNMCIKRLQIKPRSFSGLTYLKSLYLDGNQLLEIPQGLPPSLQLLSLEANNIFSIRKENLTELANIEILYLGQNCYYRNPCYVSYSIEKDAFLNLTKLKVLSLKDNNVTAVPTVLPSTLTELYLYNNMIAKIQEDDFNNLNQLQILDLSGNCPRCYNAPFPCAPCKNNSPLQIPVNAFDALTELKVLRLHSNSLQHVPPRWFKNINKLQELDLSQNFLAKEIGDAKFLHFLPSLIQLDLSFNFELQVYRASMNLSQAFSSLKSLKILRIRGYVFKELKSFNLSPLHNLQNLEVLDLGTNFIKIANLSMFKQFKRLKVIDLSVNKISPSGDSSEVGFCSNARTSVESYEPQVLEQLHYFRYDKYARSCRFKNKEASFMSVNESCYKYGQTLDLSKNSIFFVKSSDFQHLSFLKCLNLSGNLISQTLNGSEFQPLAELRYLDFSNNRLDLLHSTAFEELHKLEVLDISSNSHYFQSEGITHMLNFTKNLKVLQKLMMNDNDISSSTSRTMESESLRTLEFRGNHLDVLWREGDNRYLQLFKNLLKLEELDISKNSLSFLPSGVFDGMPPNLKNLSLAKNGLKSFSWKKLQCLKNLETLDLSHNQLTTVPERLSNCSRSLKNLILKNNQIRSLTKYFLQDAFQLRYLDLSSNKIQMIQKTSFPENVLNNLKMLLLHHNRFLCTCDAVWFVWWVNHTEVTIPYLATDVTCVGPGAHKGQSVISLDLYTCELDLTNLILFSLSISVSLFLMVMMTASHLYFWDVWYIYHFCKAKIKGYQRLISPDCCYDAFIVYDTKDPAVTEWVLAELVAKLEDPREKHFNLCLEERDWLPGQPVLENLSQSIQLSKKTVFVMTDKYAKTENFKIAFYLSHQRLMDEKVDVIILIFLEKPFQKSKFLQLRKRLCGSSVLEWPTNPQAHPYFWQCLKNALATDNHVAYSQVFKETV
The assay is described as follows: HEK-Blue hTLR7 NF-κB/AP-1 SEAP reporter assay. The assay is classed as cell-based. As to conditions: HEK-Blue hTLR7 cells, 10 μg/mL to 10 pg/ml, 24 hours, OD at 655 nm, FIG. 1. Summed up:
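HEK293 cells stably expressing the given TLR, or RAW 264.7-derived cells (50,000 or 100,000 cells/well respectively), carry an NF-κB/AP-1-inducible SEAP reporter. Conjugated TLR7-TLR2 agonists at final 10 μg/mL to 10 pg/ml, 24 h at 37° C. SEAP read colorimetrically as OD at 655 nm in detection medium.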

For the molecule `CCCCCCCCCCCCCCCC(=O)OCC(CSC[C@H](N)C(=O)N[C@@H](COC(=O)c1ccc(Cn2c(O)nc3c(N)nc(NCCCC)nc32)cc1)C(=O)NCCCNCCCCNCCCN)OC(=O)CCCCCCCCCCCCCCC` (stereo partly drawn) [CL514, (6R,9S)-6,23-diamino-9-((4-((6-amino-2-(butylamino)-8-hydroxy-9H-purin-9-yl)methyl)benzoyloxy)methyl)-7,10-dioxo-4-thia-8,11,15,20-tetraazatricosane-1,2-diyl dipalmitate], the “ability to induce an IFN response in B16-ISG54 reporter cells” value (“ability to induce an IFN response” below) in assay [1] is on record as “induce an IFN response in B16-ISG54 reporter cells”. Besides, the “ability to activate hTLR7” value on human TLR7 is “activate hTLR7”.
On the same counts, the results for “(6S,9S,12S,15S,18S,21R)-6,25-diamino-21-(4-((6-amino-2-(butylamino)-8-hydroxy-9H-purin-9-yl)methyl)phenylcarbamoyl)-12,15,18-tris(4-aminobutyl)-9-(hydroxyl methyl)-7,10,13,16,19-pentaoxo-4-thia-8,11,14,17,20-pentaazapentacosane-1,2-diyl dipalmitate [CL413]” are “induce an IFN response in B16-ISG54 reporter cells” and “activate hTLR7”.
In the case of `CCCCCCCCCCCCCCCC(=O)OCC(CSC[C@H](N)C(=O)NCCCNCCCCNCCCNC(=O)CNC(=O)c1ccc(Cn2c(O)nc3c(N)nc(NCCCC)nc32)cc1)OC(=O)CCCCCCCCCCCCCCC` (stereo partly drawn) [CL553, (20R)-20-amino-1-(4-((6-amino-2-(butylamino)-8-hydroxy-9H-purin-9-yl)methyl)phenyl)-1,4,19-trioxo-22-thia-2,5,9,14,18-pentaazapentacosane-24,25-diyl dipalmitate], the “ability to induce an IFN response” value in assay [1] is reported as “induce an IFN response in B16-ISG54 reporter cells”. For the same molecule, the “ability to activate hTLR7” value at human TLR7 is on record as “activate hTLR7”.
`CCCCCCCCCCCCCCCC(=O)N[C@@H](CSCC(COC(=O)CCCCCCCCCCCCCCC)OC(=O)CCCCCCCCCCCCCCC)C(=O)N[C@@H](CO)C(=O)N[C@@H](CCCCN)C(=O)N[C@@H](CCCCN)C(=O)N[C@@H](CCCCN)C(=O)N[C@@H](CCCCN)C(=O)Nc1ccc(Cn2c(O)nc3c(N)nc(NCCCC)nc32)cc1` (stereo partly drawn) [CL534, ((6R,9S,12S,15S,18S,21S)-25-amino-21-(4-((6-amino-2-(butylamino)-8-hydroxy-9H-purin-9-yl)methyl)phenylcarbamoyl)-12,15,18-tris(4-aminobutyl)-9-(hydroxylmethyl)-7,10,13,16,19-pentaoxo-6-palmitamido-4-thia-8,11,14,17,20-pentaazapentacosane-1,2-diyl dipalmitate]: on human TLR7, the “ability to activate hTLR7” value is “activate hTLR7”.
As to `CCCCCCCCCCCCCCCC(=O)OCC(CSC[C@H](N)C(=O)N[C@@H](CCC(=O)NCCCNCCCCNCCCN)C(=O)Nc1ccc(Cn2c(O)nc3c(N)nc(NCCCC)nc32)cc1)OC(=O)CCCCCCCCCCCCCCC` (stereo partly drawn) [CL527, (6R,9S)-6,25-diamino-9-(4-((6-amino-2-(butylamino)-8-hydroxy-9H-purin-9-yl)methyl)phenylcarbamoyl)-7,12-dioxo-4-thia-8,13,17,22-tetraazapentacosane-1,2-diyl dipalmitate], the “ability to induce an IFN response” value in assay [1] is on record as “induce an IFN response in B16-ISG54 reporter cells”. Moreover, on human TLR7, the “ability to activate hTLR7” value is recorded as “activate hTLR7”.
